Data published in BindingDB's records for patent US20240262826 (Blueprint Medicines, 2024).

biological target: Mast/stem cell growth factor receptor Kit (Homo sapiens, UniProt P10721); test: Biochemical Phospho c-Kit Inhibition Assay
Method: For the PathScan phospho c-kit (Tyr719) sandwich ELISA: M-07e cells were resuspended at 2×10^6 cells/mL in phenol red free, serum-free, GM-CSF-free Iscove's Modified Dulbecco's Medium (IMDM) media with 1% Penicillin-Streptomycin. The cells were then dispensed into the wells of a U-bottom, 96-well plate at 50 uL per well using a multichannel pipet. The plate was allowed to incubate at 37° C. in a humidified tissue culture incubator for 4 hours.After 4 hours of incubation, each well was dosed with 6.25 uL of test compound at a final DMSO concentration of 0.25% for 60 min at 37° C. to generate an 8-point dose concentration series of test compounds in duplicate. Cells were then incubated for 1 hour at 37° C. in a humidified tissue culture incubator. Next, human SCF at 500 ng/mL was added to the appropriate wells at 6.25 uL/well and the plate was shaken at 450 rpm at room temperature for 10 minutes. AlphaLISA 5× Lysis Buffer supplemented with 1× protease and phosphatase inhibitor was then added at 16 uL/well. The plate was sealed with an adherent cover and shaken at 4° C. at 600 rpm for 30 minutes. After this period of lysis, the plate was stored at −80° C. When the 96-well plate containing M07e lysates was ready to be processed, the plate was brought to room temperature and 40 μl from each well was transferred to the wells of a PathScan Phospho-c-Kit (Tyr719) Sandwich ELISA plate (CST, Catalog #7298). The ELISA plate was sealed with an adherent cover and incubated for 2 hours at 37° C. Next, the wells were washed 4 times with the provided 1× Wash Buffer, and 100 uL/well of reconstituted Detection Antibody was added to each well, the plate sealed with an adherent cover, and incubated at 37° C. for 1 hour. The wash procedure was repeated and 100 uL/well of reconstituted HRP-Linked secondary antibody was added. The plate was sealed with an adherent cover and incubated at 37° C. for 1 hour. The wash procedure was repeated and 100 uL/well of TMB Substrate was added. The plate was incubated for 10 minutes at room temperature or until the positive reaction elicited a blue color in the appropriate wells. 100 uL/well of STOP solution was added and shaken gently for a few seconds a microplate reader or conventional spectrophotometer e.g., a Perkin Elmer Envision multimode plate reader, part #2105-0010.

Chain of Mast/stem cell growth factor receptor Kit (P10721 whole entry): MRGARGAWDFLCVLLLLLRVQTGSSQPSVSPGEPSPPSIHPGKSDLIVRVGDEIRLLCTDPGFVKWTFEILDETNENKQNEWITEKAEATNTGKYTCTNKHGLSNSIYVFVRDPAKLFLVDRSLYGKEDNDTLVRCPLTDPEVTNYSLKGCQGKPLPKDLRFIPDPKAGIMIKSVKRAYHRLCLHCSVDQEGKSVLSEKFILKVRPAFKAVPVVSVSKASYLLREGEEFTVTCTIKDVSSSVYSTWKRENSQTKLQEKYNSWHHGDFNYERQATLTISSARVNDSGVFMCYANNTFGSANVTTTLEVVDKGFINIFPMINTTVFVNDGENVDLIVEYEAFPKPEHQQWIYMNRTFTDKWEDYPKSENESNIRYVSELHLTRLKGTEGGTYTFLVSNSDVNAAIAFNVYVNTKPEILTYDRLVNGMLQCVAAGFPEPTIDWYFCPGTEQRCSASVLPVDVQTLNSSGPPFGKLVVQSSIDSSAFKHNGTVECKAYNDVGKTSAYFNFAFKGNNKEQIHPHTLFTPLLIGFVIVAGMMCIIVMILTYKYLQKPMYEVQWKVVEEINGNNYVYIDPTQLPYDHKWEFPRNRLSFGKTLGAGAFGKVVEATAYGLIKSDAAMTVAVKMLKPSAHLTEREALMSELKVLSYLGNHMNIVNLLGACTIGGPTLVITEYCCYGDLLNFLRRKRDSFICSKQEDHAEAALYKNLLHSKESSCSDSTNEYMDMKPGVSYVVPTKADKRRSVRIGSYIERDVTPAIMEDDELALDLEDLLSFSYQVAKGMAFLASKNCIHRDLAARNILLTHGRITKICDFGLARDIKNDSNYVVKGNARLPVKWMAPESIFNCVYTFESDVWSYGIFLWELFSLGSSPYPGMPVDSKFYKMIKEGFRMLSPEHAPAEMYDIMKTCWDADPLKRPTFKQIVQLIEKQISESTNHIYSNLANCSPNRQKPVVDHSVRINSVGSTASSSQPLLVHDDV

Compound | IC50
Cc1ccc(-c2nnn(C3CC(F)(F)C3)n2)cc1NC(=O)c1cnn2ccc(N3CC[C@H]3CO)cc12 [US20240262826, Compound 104] | 3.5 nM
O=C(Nc1cc(-c2nnn(C3CC(F)(F)C3)n2)c(Cl)cc1Cl)c1cnn2ccc(N3CCOCC3)cc12 [US20240262826, Compound 167] | 7.3 nM
Cc1cnn(-c2ccc(C)c(NC(=O)c3cnn4ccc(-c5cnn(C[C@H]6CNCCO6)c5)cc34)c2)n1 [US20240262826, Compound 205] | 8.2 nM

Compounds with a lower IC50, results first:

IC50 | Compound
1.4 nM | Cc1ccc(-c2nnn(CCOCC(F)(F)F)n2)cc1NC(=O)c1cnn2ccc(-c3cn[nH]c3)cc12 [US20240262826, Compound 197]
1.7 nM | COCCOC[C@@H](O)Cn1cc(-c2ccn3ncc(C(=O)Nc4cc(-c5nnn(C6CC6)n5)c(C)cc4Cl)c3c2)cn1 [US20240262826, Compound 261]
